Measurements from patent publication US7642400B2, “Protein kinase C iota” (Mayo Foundation for Medical Education and Research, priority 2004, dated 2010).

Experiments:
[1] = biological target: T1, interaction of PKCι polypeptides with PAR6 polypeptides (Homo sapiens, UniProt P41743); test: Secondary screen: PYN bound to plate-immobilised biotin-tagged PAR6; assay type: binding; conditions: for Secondary Screen: amount of PYN bound to biotin-tagged PAR6 plates
T1 construct: amino acids 1-113 or a full-length PKCι polypeptide; 6xHis; made in house
T1 sequence (P41743 10-122): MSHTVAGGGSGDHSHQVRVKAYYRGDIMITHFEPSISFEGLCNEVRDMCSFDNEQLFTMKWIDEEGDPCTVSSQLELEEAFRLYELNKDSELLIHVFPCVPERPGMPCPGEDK
Procedure: Multiple test compounds that were classified as hits in the primary screen as well as additional related compounds were evaluated in a secondary screen designed as follows. Briefly, a 96-well microtiter plate coated with streptavidin (Nunc #436014) was incubated for 2-4 hours at room temperature with 100 μl of a 20-30 μg/ml solution of biotin-tagged PAR6 (whole polypeptide) in phosphate-buffered saline containing Tween-20 (PBST). Plates were washed twice with PBST, then once with incubation buffer (50 mM Tris, pH 8.0; 135 mM NaCl; 10% glycerol; 0.002% EDTA). Incubation buffer (50 μl) was added to each well. The compounds to be tested were added (10 μl) followed by PYN (50 μl) diluted in incubation buffer to an approximate concentration of 4000-5000 relative fluorescent units per 50 μl. Plates were incubated overnight at 4° C. Plates were washed twice with incubation buffer, after which 50 μl incubation buffer was added to retain moisture in the wells. The amount of PYN bound on the plates was determined by measuring yellow fluorescence (532/526) in a Typhoon imager. Fluorescence was quantitated by Softmax Pro software.
A dose-response analysis was performed using the secondary screening assay and increasing amounts (e.g., 0, 0.1, 1, 10, 100, and […]) of gossypol, hexestrol, thimerosal, ebselen, ATG, ATM, ellagic acid, cisplatin, apomorphine, or phenylmercuric acetate.

[2] = biological target: T1, interaction of PKCι polypeptides with PAR6 polypeptides; test: Primary screen: FRET assay of PKCι113-YFP-N1 (PYN) and PAR6125-CFP-C1; conditions: FIG. 18; less binding as concentration increased
Procedure: A primary screen was performed as follows to identify test compound having the potential to inhibit the interaction of PKCι polypeptides with PAR6 polypeptides. Bacterially expressed PKCι113-YFP-N1 (PYN) was isolated from the soluble fraction of bacterial lysates by affinity purification according to the manufacturer's protocol (B-PER 6×His Purification Kit; Pierce). The purified polypeptide was dialyzed against Tris buffer (50 mM Tris, pH 8.0; 135 mM NaCl; 10% glycerol; 0.002% EDTA) containing 2 M urea. PAR6125-CFP-C1 recombinant polypeptide was isolated from the inclusion body pellets of bacterial lysates using the B-PER reagent (Pierce) according to the manufacturer's protocol. […] Yields were measured by fluorescence in a SpectraMax Gemini microplate reader (Molecular Devices).
To perform the assay, PYN was diluted to 4000 relative fluorescent units/50 μl in Tris buffer plus 1 M urea, and PAR6125-CFP-C1 was diluted to 400 relative fluorescent units/50 μl Tris buffer plus 1 M urea. […] Fluorescence was measured in a SpectraMax Gemini plate reader. Cyan fluorescence was measured at excitation 395 nm, emission 475 nm, and cutoff of 455 nm. Yellow fluorescence was measured at excitation 395 nm, emission 529, and cutoff of 515=n. […]

[3] = test system: A549 human lung carcinoma cells; test: Tumorigenicity in nude mice: A549 subcutaneous tumors; assay type: in vivo, mouse; conditions: 200 mg/kg body weight intraperitoneal daily, versus saline; FIG. 21
Procedure: Tumorigenicity in Nude Mice: The growth of A549 human lung carcinoma cells as established subcutaneous tumors was studied in athymic nude mice (Harlan-Sprague-Dawley, Indianapolis, Ind.) in a defined pathogen-free environment. Briefly, A549 cells were grown in F-12K Nutrient Mixture containing 10% FBS. A549 cells were harvested and resuspended in serum-containing medium. 5×10^6 cells in 100 μl of growth medium were injected subcutaneously into the flank of 4-6 week old female nude mice. Once palpable tumors were established (15 days after inoculation) animals were randomly segregated into two groups. One group received intraperitoneal injections of ATG (200 mg/kg body weight) daily; the second group received an equivalent volume of diluent control solution. Tumor size was measured daily. Tumor growth was quantified by measuring the tumors in three dimensions with calipers. Tumor volume (mm^3) was calculated using the formula: 0.5236 (L×W×H), where L represents the length of the tumor, W represents the width of the tumor, and H represents the height of the tumor. Animals were individually monitored throughout the experiment.

OC[C@H]1O[C@H]([S-])[C@H](O)[C@@H](O)[C@@H]1O.[Au+] [Aurothioglucose]
Secondary Screen [1]: Confirmed
Secondary Screen ([1]; listed as aurothioglucose): confirmed
dose-response analysis using the secondary screening assay ([1]; increasing amounts, e.g. 0, 0.1, 1, 10, 100, and 100 μM): dose-dependent response was detected
dose-response in the FRET assay: relative binding of PKCι and PAR6 polypeptides [2]: dose-dependent effect
tumor growth (tumor volume) [3]: less tumor growth
